Data taken from patent US20220323406A1, “METHODS AND COMPOSITIONS FOR DIFFERENTIATING STEM CELLS” (Massachusetts Institute of Technology, priority 2019, published 2022).
Counter-ions that a name gives are not always drawn.

Legend:
[1] = system: ENR+CD organoids (ISC to Paneth cell differentiation); assay: Primary screen: CCh-stimulated lysozyme secretion LYZ.S, 2.5-D 384-well ENR+CD organoid differentiation; type: cell-based, mouse; settings: primary screen; for Dose.FC.LYZ.S: FC vs plate median
Description: (§1) High-throughput screening.

[2] = system: ENR+CD organoids (ISC to Paneth cell differentiation); assay: Primary screen: basal (non-stimulated) lysozyme secretion LYZ.NS, 2.5-D 384-well ENR+CD organoid differentiation; type: cell-based, mouse; settings: primary screen; for Z.LYZ.NS: standard z score; for Dose.FC.LYZ.NS: FC vs plate median
Description: as §1

ENR+CD organoids = assay: Primary screen: ATP (CellTiter-Glo 3D, CTG) cell number/viability, 2.5-D 384-well ENR+CD organoids; settings: primary screen; for Z.CTG: standard z score; for Dose.FC.CTG: FC vs plate median;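 as to all read-outs here: compounds given at plating and again on day 3 over a 6-day differentiation from ENR+CV stem-cell-enriched precursors, ATP measured on day 6, plate median as control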

Structure (SMILES)	Dose.FC.LYZ.S ([1]; dose 0.08 uM)	Dose.FC.LYZ.S ([1]; dose 0.40 uM)	Dose.FC.LYZ.S ([1]; dose 2.00 uM)	Dose.FC.LYZ.S ([1]; dose 10.00 uM)	Z.LYZ.NS ([2]; dose 0.08 uM)	Z.LYZ.NS ([2]; dose 0.40 uM)	Z.LYZ.NS ([2]; dose 2.00 uM)	Z.LYZ.NS ([2]; dose 10.00 uM)	Dose.FC.LYZ.NS ([2]; dose 0.08 uM)	Dose.FC.LYZ.NS ([2]; dose 0.40 uM)	Dose.FC.LYZ.NS ([2]; dose 2.00 uM)	Dose.FC.LYZ.NS ([2]; dose 10.00 uM)	Z.CTG (ENR+CD organoids; dose 0.08 uM)	Z.CTG (ENR+CD organoids; dose 0.40 uM)	Z.CTG (ENR+CD organoids; dose 2.00 uM)	Z.CTG (ENR+CD organoids; dose 10.00 uM)	Dose.FC.CTG (ENR+CD organoids; dose 0.08 uM)	Dose.FC.CTG (ENR+CD organoids; dose 0.40 uM)	Dose.FC.CTG (ENR+CD organoids; dose 2.00 uM)	Dose.FC.CTG (ENR+CD organoids; dose 10.00 uM)	also measured
S=C=Nc1cccc(NC(=S)NCCCCNC(=S)Nc2cccc(N=C=S)c2)c1 [MRS 2578]	0.095 log2 fold change	0.067 log2 fold change	0.023 log2 fold change	0.013 log2 fold change	1.011	0.311	0.270	0.276	0.116 log2 fold change	0.036 log2 fold change	0.031 log2 fold change	0.032 log2 fold change	−0.339	0.146	−0.381	−0.544	−0.142 log2 fold change	0.061 log2 fold change	−0.159 log2 fold change	−0.228 log2 fold change	
COc1cc(-n2c(=S)[nH]c3ccccc3c2=O)c(Cl)cc1Cl [Mdivi-1]																					Dose.FC.LYZ.S (log2 fold change) ([1]; dose 0.08 uM): 0.079; Dose.FC.LYZ.S (log2 fold change) ([1]; dose 0.40 uM): 0.030; Dose.FC.LYZ.S (log2 fold change) ([1]; dose 2.00 uM): −0.048; Dose.FC.LYZ.S (log2 fold change) ([1]; dose 10.00 uM): −0.411; Dose.FC.LYZ.NS (log2 fold change) ([2]; dose 0.08 uM): 0.177; Z.LYZ.NS (standard z score) ([2]; dose 0.08 uM): 1.537; Dose.FC.LYZ.NS (log2 fold change) ([2]; dose 0.40 uM): 0.156; Z.LYZ.NS (standard z score) ([2]; dose 0.40 uM): 1.358; Dose.FC.LYZ.NS (log2 fold change) ([2]; dose 2.00 uM): −0.022; Z.LYZ.NS (standard z score) ([2]; dose 2.00 uM): −0.194; Dose.FC.LYZ.NS (log2 fold change) ([2]; dose 10.00 uM): −0.268; Z.LYZ.NS (standard z score) ([2]; dose 10.00 uM): −2.333; Dose.FC.CTG (log2 fold change) (ENR+CD organoids; dose 0.08 uM): 0.008; Z.CTG (standard z score) (ENR+CD organoids; dose 0.08 uM): 0.019; Dose.FC.CTG (log2 fold change) (ENR+CD organoids; dose 0.40 uM): −0.031; Z.CTG (standard z score) (ENR+CD organoids; dose 0.40 uM): −0.074; Dose.FC.CTG (log2 fold change) (ENR+CD organoids; dose 2.00 uM): −0.112; Z.CTG (standard z score) (ENR+CD organoids; dose 2.00 uM): −0.267; Dose.FC.CTG (log2 fold change) (ENR+CD organoids; dose 10.00 uM): −0.527; Z.CTG (standard z score) (ENR+CD organoids; dose 10.00 uM): −1.259
CC12CC3CC(C)(C1)CC(N)(C3)C2 [Memantine HCl]																					Dose.FC.LYZ.S (log2 fold change) ([1]; dose 0.08 uM): 0.091; Dose.FC.LYZ.S (log2 fold change) ([1]; dose 0.40 uM): 0.017; Dose.FC.LYZ.S (log2 fold change) ([1]; dose 2.00 uM): 0.051; Dose.FC.LYZ.S (log2 fold change) ([1]; dose 10.00 uM): −0.021; Dose.FC.LYZ.NS (log2 fold change) ([2]; dose 0.08 uM): 0.069; Z.LYZ.NS (standard z score) ([2]; dose 0.08 uM): 0.598; Dose.FC.LYZ.NS (log2 fold change) ([2]; dose 0.40 uM): 0.004; Z.LYZ.NS (standard z score) ([2]; dose 0.40 uM): 0.032; Dose.FC.LYZ.NS (log2 fold change) ([2]; dose 2.00 uM): 0.106; Z.LYZ.NS (standard z score) ([2]; dose 2.00 uM): 0.919; Dose.FC.LYZ.NS (log2 fold change) ([2]; dose 10.00 uM): −0.047; Z.LYZ.NS (standard z score) ([2]; dose 10.00 uM): −0.411; Dose.FC.CTG (log2 fold change) (ENR+CD organoids; dose 0.08 uM): 0.083; Dose.FC.CTG (log2 fold change) (ENR+CD organoids; dose 0.40 uM): 0.072; Dose.FC.CTG (log2 fold change) (ENR+CD organoids; dose 2.00 uM): −0.007; Dose.FC.CTG (log2 fold change) (ENR+CD organoids; dose 10.00 uM): 0.077
CN(Cc1cnc2nc(N)nc(N)c2n1)c1ccc(C(=O)N[C@@H](CCC(=O)O)C(=O)O)cc1 [Methotrexate]		−0.129 log2 fold change	−0.177 log2 fold change	−0.156 log2 fold change		−0.332	−1.132	−0.658		−0.038 log2 fold change	−0.130 log2 fold change	−0.076 log2 fold change						−0.722 log2 fold change	−0.701 log2 fold change	−0.642 log2 fold change	Dose.FC.LYZ.S (log2 fold change) ([1]; dose 0.08 uM): −0.159; Dose.FC.LYZ.NS (log2 fold change) ([2]; dose 0.08 uM): −0.097; Z.LYZ.NS (standard z score) ([2]; dose 0.08 uM): −0.843; Dose.FC.CTG (log2 fold change) (ENR+CD organoids; dose 0.08 uM): −0.615
Nc1nc(CC(=O)Nc2ccc(CCNC[C@H](O)c3ccccc3)cc2)cs1 [Mirabegron]	0.148 log2 fold change	−0.016 log2 fold change	−0.049 log2 fold change	−0.010 log2 fold change	1.201	−0.259	−0.301	0.193	0.138 log2 fold change	−0.030 log2 fold change	−0.035 log2 fold change	0.022 log2 fold change					0.029 log2 fold change	−0.335 log2 fold change	0.019 log2 fold change	−0.051 log2 fold change	
O=C(NCCN1CCOCC1)c1ccc(Cl)cc1 [Moclobemide (Ro 111163)]	0.147 log2 fold change	0.094 log2 fold change	0.012 log2 fold change	0.019 log2 fold change	0.654	1.055	0.011	−0.243	0.075 log2 fold change	0.121 log2 fold change	0.001 log2 fold change	−0.028 log2 fold change	0.348	0.252	0.276	0.100	0.146 log2 fold change	0.106 log2 fold change	0.116 log2 fold change	0.042 log2 fold change	
Cc1ccccc1C(=O)Nc1ccc(C(=O)N2CCCC(N(C)C)c3ccccc32)cc1 (stereo not drawn) [Mozavaptan]	0.086 log2 fold change	0.165 log2 fold change	0.106 log2 fold change	−0.270 log2 fold change	0.584	−0.233	0.294	−1.752	0.067 log2 fold change	−0.027 log2 fold change	0.034 log2 fold change	−0.201 log2 fold change					0.320 log2 fold change	0.235 log2 fold change	0.108 log2 fold change	−0.336 log2 fold change	
FC(F)(F)c1ccc(/C=C/c2nc(COc3ccc(CCCCn4ccnn4)cc3)co2)cc1 [Mubritinib (TAK 165)]	−0.119 log2 fold change	−0.154 log2 fold change	−0.299 log2 fold change	−0.294 log2 fold change	−0.500	−1.687	−1.950	−2.092	−0.057 log2 fold change	−0.194 log2 fold change	−0.224 log2 fold change	−0.240 log2 fold change	−1.252	−0.812	−1.265	−1.240	−0.524 log2 fold change	−0.340 log2 fold change	−0.530 log2 fold change	−0.519 log2 fold change	
